Laboratory results taken from PubChem BioAssay AID248 (DTP/NCI, 2004).
Where “and” joins values, the source holds several entries; their conditions need not be identical. Identical values can stand only once. Toxic doses and inconclusive results are not listed. No stated cut-off is given here; in the data, active means T/C of 150% or more; inactive means T/C below 125%.

Tested on: L1210 leukemia ip in BDF1 mice, survival T/C
Assay: NCI In Vivo Anticancer Drug Screen. Data for tumor model L1210 Leukemia (intraperitoneal) in B6D2F1 (BDF1) mice
Details: endpoint: mean survival time, higher = longer survival
Procedure, shortened: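 Transplanted-tumor mice were given test agent; controls received vehicle only. Survival readings from the two groups were divided (treated over control).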

[1] = dose: 50.0 mg/kg/injection, schedule: Q01DX001 (ip), vehicle: saline with Tween-80
[2] = dose: 100.0 mg/kg/injection, schedule: Q01DX001 (ip), vehicle: saline with Tween-80
[3] = dose: 100.0 mg/kg/injection, schedule: Q04DX002 (ip), vehicle: Klucel (hydroxypropylcellulose) (HPC)
[4] = dose: 200.0 mg/kg/injection, schedule: Q04DX002 (ip), vehicle: Klucel (hydroxypropylcellulose) (HPC)
[5] = dose: 400.0 mg/kg/injection, schedule: Q04DX002 (ip), vehicle: Klucel (hydroxypropylcellulose) (HPC)
[6] = dose: 100.0 mg/kg/injection, schedule: Q01DX009 (ip), vehicle: saline with Tween-80
[7] = dose: 200.0 mg/kg/injection, schedule: Q01DX009 (ip), vehicle: saline with Tween-80
[8] = dose: 50.0 mg/kg/injection, schedule: Q04DX002 (ip), vehicle: Klucel (hydroxypropylcellulose) (HPC)
[9] = dose: 50.0 mg/kg/injection, schedule: Q01DX009 (ip), vehicle: saline with Tween-80
[10] = dose: 100.0 mg/kg/injection, schedule: Q04DX003 (ip), vehicle: saline
[11] = dose: 200.0 mg/kg/injection, schedule: Q04DX003 (ip), vehicle: saline
[12] = dose: 400.0 mg/kg/injection, schedule: Q04DX003 (ip), vehicle: saline
[13] = dose: 100.0 mg/kg/injection, schedule: Q01DX001 (ip), vehicle: carboxymethylcellulose (CMC)
[14] = dose: 200.0 mg/kg/injection, schedule: Q01DX001 (ip), vehicle: carboxymethylcellulose (CMC)
[15] = dose: 400.0 mg/kg/injection, schedule: Q01DX001 (ip), vehicle: carboxymethylcellulose (CMC)
[16] = dose: 100.0 mg/kg/injection, schedule: Q01DX009 (ip), vehicle: saline
[17] = dose: 200.0 mg/kg/injection, schedule: Q01DX009 (ip), vehicle: saline
[18] = dose: 400.0 mg/kg/injection, schedule: Q01DX009 (ip), vehicle: saline

Measured: T/C

NC1CC2CCC1C2 (stereo unspecified)
inactive: [1] 98 % of control | dose: 50.0 mg/kg/injection, schedule: Q04DX002 (ip), vehicle: saline 93 % of control | [2] 98 % of control | dose: 100.0 mg/kg/injection, schedule: Q04DX002 (ip), vehicle: saline 100 % of control | dose: 200.0 mg/kg/injection, schedule: Q01DX001 (ip), vehicle: saline with Tween-80 103 % of control

CCCNC(=O)Oc1cccc(C)c1
inactive: [3] 100 % of control | [4] 106 % of control | [5] 110 % of control

C/C=C/C(=O)Nc1cccc(O)c1
inactive: [6] 93 % of control | [7] 91 % of control | dose: 400.0 mg/kg/injection, schedule: Q01DX009 (ip), vehicle: saline with Tween-80 93 % of control

CCn1c(N)c(N=O)c(=O)[nH]c1=O
inactive: dose: 100.0 mg/kg/injection, schedule: Q01DX009 (ip), vehicle: gum acacia 95 % of control | dose: 200.0 mg/kg/injection, schedule: Q01DX009 (ip), vehicle: gum acacia 99 % of control

O=C(NC(Cc1ccc(O)cc1)C(=O)O)SCc1ccccc1 (stereo unspecified)
inactive: dose: 100.0 mg/kg/injection, schedule: Q01DX001 (ip), vehicle: other 100 % of control | dose: 200.0 mg/kg/injection, schedule: Q01DX001 (ip), vehicle: other 102 % of control | dose: 400.0 mg/kg/injection, schedule: Q01DX001 (ip), vehicle: other 102 % of control

CSc1ccc(OC(=O)Nc2cccc3ccccc23)cc1C
inactive: [3] 101 % of control | [4] 101 % of control | [5] 104 % of control

O=C(Cc1ccccc1)NCCCl
inactive: dose: 100.0 mg/kg/injection, schedule: Q04DX002 (ip), vehicle: saline with Tween-80 103 % of control | dose: 200.0 mg/kg/injection, schedule: Q04DX002 (ip), vehicle: saline with Tween-80 103 % of control | dose: 400.0 mg/kg/injection, schedule: Q04DX002 (ip), vehicle: saline with Tween-80 105 % of control

OCCCOc1cccc(Cl)c1
inactive: dose: 75.0 mg/kg/injection, schedule: Q04DX002 (ip), vehicle: Klucel (hydroxypropylcellulose) (HPC) 105 % of control | dose: 150.0 mg/kg/injection, schedule: Q04DX002 (ip), vehicle: Klucel (hydroxypropylcellulose) (HPC) 108 % of control | dose: 300.0 mg/kg/injection, schedule: Q04DX002 (ip), vehicle: Klucel (hydroxypropylcellulose) (HPC) 105 % of control

Nc1nc(Br)c(Br)nc1C(=O)O
inactive: dose: 12.5 mg/kg/injection, schedule: Q01DX009 (ip), vehicle: Klucel (hydroxypropylcellulose) (HPC) 101 % of control and 103 % of control | dose: 25.0 mg/kg/injection, schedule: Q01DX009 (ip), vehicle: Klucel (hydroxypropylcellulose) (HPC) 97 % of control | dose: 50.0 mg/kg/injection, schedule: Q01DX001 (ip), vehicle: Klucel (hydroxypropylcellulose) (HPC) 101 % of control | dose: 50.0 mg/kg/injection, schedule: Q01DX009 (ip), vehicle: Klucel (hydroxypropylcellulose) (HPC) 95 % of control and 91 % of control | [8] 104 % of control | dose: 50.0 mg/kg/injection, schedule: Q04DX003 (ip), vehicle: Klucel (hydroxypropylcellulose) (HPC) 103 % of control | dose: 100.0 mg/kg/injection, schedule: Q01DX001 (ip), vehicle: Klucel (hydroxypropylcellulose) (HPC) 102 % of control | [3] 100 % of control | dose: 100.0 mg/kg/injection, schedule: Q04DX003 (ip), vehicle: Klucel (hydroxypropylcellulose) (HPC) 106 % of control | dose: 200.0 mg/kg/injection, schedule: Q01DX001 (ip), vehicle: Klucel (hydroxypropylcellulose) (HPC) 96 % of control

c1ccc(-c2[nH]c(-c3ccccc3)c(-c3ccccc3)c2-c2ccccc2)cc1
inactive: [9] 102 % of control | [6] 95 % of control | [7] 95 % of control

CS(=O)(=O)OC1COC(c2ccccc2)OC1C1OC(c2ccccc2)OCC1OS(C)(=O)=O (stereo unspecified)
inactive: [8] 98 % of control | [3] 98 % of control | [4] 109 % of control

c1ccc(OB(Oc2ccccc2)Oc2ccccc2)cc1
inactive: dose: 100.0 mg/kg/injection, schedule: Q01DX001 (ip), vehicle: saline 95 % of control | dose: 200.0 mg/kg/injection, schedule: Q01DX001 (ip), vehicle: saline 95 % of control | dose: 400.0 mg/kg/injection, schedule: Q01DX001 (ip), vehicle: saline 106 % of control

Cc1cccc(OC(=O)Nc2ccccc2C)c1
inactive: [3] 103 % of control | [4] 118 % of control | [5] 100 % of control

COc1ccc(C=O)c(Cl)c1OC
inactive: dose: 100.0 mg/kg/injection, schedule: Q01DX009 (ip), vehicle: Klucel (hydroxypropylcellulose) (HPC) 94 % of control | [10] 92 % of control | dose: 200.0 mg/kg/injection, schedule: Q01DX009 (ip), vehicle: Klucel (hydroxypropylcellulose) (HPC) 94 % of control | [11] 108 % of control | [12] 98 % of control

Cc1ccc2no[n+]([O-])c2c1
inactive: dose: 20.0 mg/kg/injection, schedule: Q01DX009 (ip), vehicle: Klucel (hydroxypropylcellulose) (HPC) 111 % of control | dose: 40.0 mg/kg/injection, schedule: Q01DX009 (ip), vehicle: Klucel (hydroxypropylcellulose) (HPC) 108 % of control

COc1cc(/C=N/N=C(N)N)cc(I)c1O
inactive: dose: 15.0 mg/kg/injection, schedule: Q01DX Z (ip), vehicle: carboxymethylcellulose (CMC) 100 % of control | dose: 30.0 mg/kg/injection, schedule: Q01DX Z (ip), vehicle: carboxymethylcellulose (CMC) 106 % of control | dose: 30.0 mg/kg/injection, schedule: Q01DX Z (oral), vehicle: carboxymethylcellulose (CMC) 102 % of control | dose: 60.0 mg/kg/injection, schedule: Q01DX Z (ip), vehicle: carboxymethylcellulose (CMC) 112 % of control | dose: 60.0 mg/kg/injection, schedule: Q01DX Z (oral), vehicle: carboxymethylcellulose (CMC) 95 % of control | dose: 120.0 mg/kg/injection, schedule: Q01DX Z (oral), vehicle: carboxymethylcellulose (CMC) 98 % of control

O=C(O)c1ccc(CBr)cc1CBr
inactive: dose: 6.25 mg/kg/injection, schedule: Q01DX009 (ip), vehicle: saline with Tween-80 103 % of control | dose: 6.25 mg/kg/injection, schedule: Q04DX003 (ip), vehicle: saline with Tween-80 93 % of control | dose: 12.5 mg/kg/injection, schedule: Q01DX009 (ip), vehicle: saline with Tween-80 101 % of control | dose: 12.5 mg/kg/injection, schedule: Q04DX003 (ip), vehicle: saline with Tween-80 96 % of control | dose: 25.0 mg/kg/injection, schedule: Q01DX009 (ip), vehicle: saline with Tween-80 94 % of control | dose: 25.0 mg/kg/injection, schedule: Q04DX003 (ip), vehicle: saline with Tween-80 102 % of control

C=CC(C)(C)CCCC
inactive: [10] 104 % of control | [11] 101 % of control | [12] 110 % of control

CCc1ccc(N=Nc2ccc(-c3ccc(NC(C)=O)cc3)cc2)cc1
inactive: [13] 94 % of control | [14] 102 % of control | [15] 105 % of control

CC1(C)N=C(N)N=C(N)N1c1cccc(CCCCc2ccccc2)c1
inactive: dose: 5.0 mg/kg/injection, schedule: Q01DX001 (ip), vehicle: saline 86 % of control | dose: 10.0 mg/kg/injection, schedule: Q01DX001 (ip), vehicle: saline 92 % of control | dose: 20.0 mg/kg/injection, schedule: Q01DX001 (ip), vehicle: saline 103 % of control | dose: 25.0 mg/kg/injection, schedule: Q01DX001 (ip), vehicle: saline with Tween-80 97 % of control | dose: 40.0 mg/kg/injection, schedule: Q01DX001 (ip), vehicle: saline 92 % of control | [1] 104 % of control | dose: 50.0 mg/kg/injection, schedule: Q01DX001 (ip), vehicle: saline 112 % of control | [2] 106 % of control

CC(Br)C(=O)OCc1ccccc1 (stereo unspecified)
inactive: [16] 91 % of control | [17] 91 % of control | [18] 93 % of control

Cc1cccc(CN=C(N)CCl)n1
inactive: [3] 98 % of control | [4] 95 % of control

CS(=O)(=O)Oc1cccc(C(F)(F)F)c1
inactive: [13] 107 % of control | [14] 95 % of control | [15] 98 % of control

CC1(C)CCc2ccccc2C1
inactive: [9] 104 % of control | [6] 96 % of control

COC(=O)C(C)C(O)c1ccc(C)cc1 (stereo unspecified)
inactive: [9] 93 % of control | [6] 93 % of control | [7] 93 % of control

CNC(=O)NCc1cccnc1
inactive: [16] 111 % of control | [17] 103 % of control | [18] 114 % of control
